Measured values from US9969758B2, “Antimicrobial compounds” (BIOMERIEUX, priority 2014, dated 2018).
≈ marks a conversion by molar mass, not a printed value.

Tests used:
E. coli (53) = assay: MIC by agar dilution; assay type: cell-based, Escherichia coli
From the text: (§1) Bacterial isolates. […] These included Citrobacter freundii (n=5), other species of Citrobacter (n=4), Enterobacter aerogenes (n=1), Enterobacter cloacae (n=27), Escherichia coli (n=53), Klebsiella oxytoca (n=5), Klebsiella pneumoniae (n=87), Kluyvera spp (n=1), Proteus mirabilis (n=8), Providencia rettgeri (n=2), Salmonella spp (n=3), and Serratia marcescens (n=1). Among these 197 isolates, there were 128 (65%) carbapenemase producers, including; 87 with NDM-1, 9 with IMP, 11 with KPC, 14 with OXA-48 and 7 with VIM. The majority of the carbapenemase producers jointly produced broad-spectrum β-lactamases (BSBL) or cephalosporinases (AmpC β-lactamases), but the latter are not documented for the sake of clarity.
(§2) Determining the minimum inhibitory concentrations (MIC). All the MICs were determined using an agar dilution method. This required use of a medium without a defined antagonist (peptone-free), prepared as described previously with the inclusion of 2% horse blood lysed with saponin, 25.0 μg/mL of NAD and 25.0 μg/mL of hemin [17]. The compounds tested were dissolved in sterile deionised water and incorporated into the agar medium in a concentration range of 0.0031 to 8.0 μg/mL (0.016 to 32 μg/mL for gram-positive bacteria). All the isolates were prepared at a density equivalent to 0.5 McFarland units in sterile deionised water using a densitometer (approximately 1.5×10^8 CFU/mL), and then diluted to 1 for 15. An aliquot of 1 μL of each diluted suspension was then placed onto plates with a multispot inoculator to give the final recommended inoculation of 10 000 CFU/spot. The MICs of fosfomycin were determined by the same method, except that the IsoSensitest medium (Oxoid, Basingstoke, United Kingdom) was used, plus 25.0 μg/mL of glucose-6-phosphate (Sigma, Poole, United Kingdom) and an extended range of fosfomycin concentrations. All the dishes (including the antimicrobial-free controls) were incubated for 22 hours at 37° C. All the tests were performed on at least two independent replicates in order to examine the reproducibility.

K. pneumoniae (87) = assay: MIC by agar dilution; assay type: cell-based, Klebsiella pneumoniae; conditions: Klebsiella pneumoniae
From the text: as §1, §2

E. cloacae (27) = assay: MIC by agar dilution; assay type: cell-based, Enterobacter cloacae
From the text: as §1, §2

AmpC (22) = assay: MIC by agar dilution; assay type: cell-based, Enterobacteriaceae
From the text: as §1, §2

All S. aureus (50) = assay: MIC by agar dilution; assay type: cell-based, Staphylococcus aureus
From the text: (§3) A collection of 50 isolates of Staphylococci aureus included 36 strains of methicillin-resistant S. aureus (MRSA) frequently encountered in Europe, including strains isolated in Belgium, Finland, France, Germany and the United Kingdom. Another strain of MRSA, NCTC 11939, was included as a control, as well as a methicillin-sensitive control (NCTC 6571). Twelve other isolates of methicillin-sensitive Staphylococcus aureus (MSSA) recently collected from blood cultures were also included. Finally, 50 isolates of enterococci included two control strains (Enterococcus faecalis NCTC 755 and Enterococcus faecium NCTC 7171) and 48 isolates originating from clinical samples obtained from at least three different hospitals. The clinical isolates included E. faecalis (n=10), E. faecium (n=33), Enterococcus casseliflavus (n=3), Enterococcus gallinarum (n=2).
as §2

All Enterococci (50) = assay: MIC by agar dilution; assay type: cell-based
From the text: as §3, §2

[1] = tested on: glycopeptide-resistant enterococci; assay: MIC by agar dilution; assay type: cell-based
From the text: as §3, §2

[2] = tested on: methicillin-resistant Staphylococcus aureus; assay: MIC by agar dilution; assay type: cell-based
From the text: as §3, §2

[3] = tested on: methicillin-sensitive Staphylococcus aureus; assay: MIC by agar dilution; assay type: cell-based
From the text: as §3, §2

E. faecalis (11) = assay: MIC by agar dilution; assay type: cell-based, Enterococcus faecalis; conditions: Enterococcus faecalis
From the text: as §3, §2

E. faecium (34) = assay: MIC by agar dilution; assay type: cell-based, Enterococcus faecium
From the text: as §3, §2

Citrobacter (n=9) = assay: MIC by agar dilution; assay type: cell-based
From the text: as §1, §2

Enterobacteriaceae (197) = assay: MIC by agar dilution; assay type: cell-based
From the text: as §1, §2

[4] = tested on: Enterobacteriaceae with a broad-spectrum β-lactamase; assay: MIC by agar dilution; assay type: cell-based
From the text: as §1, §2

[5] = tested on: carbapenemase-producing Enterobacteriaceae; assay: MIC by agar dilution; assay type: cell-based
From the text: as §1, §2

E. aerogenes (n=1) = assay: MIC by agar dilution; assay type: cell-based, Enterobacter aerogenes
From the text: as §1
(§4) Determining the minimum inhibitory concentrations (MIC). All the MICs were determined using an agar dilution method. This required use of a medium without a defined antagonist (peptone-free), prepared as described previously with the inclusion of 2% horse blood lysed with saponin, 25.0 μg/mL of NAD and 25.0 μg/mL of hemin [17]. […] The MICs of fosfomycin were determined by the same method, except that the IsoSensitest medium (Oxoid, Basingstoke, United Kingdom) was used, plus 25.0 μg/mL of glucose-6-phosphate (Sigma, Poole, United Kingdom) and an extended range of fosfomycin concentrations. […]

Kluyvera sp. (n=1) = assay: MIC by agar dilution; assay type: cell-based, Kluyvera spp
From the text: as §1, §4

S. marcescens (n=1) = assay: MIC by agar dilution; assay type: cell-based, Serratia marcescens
From the text: as §1, §4

K. oxytoca = assay: MIC by agar dilution; assay type: cell-based, Klebsiella oxytoca; conditions: five isolates of K. oxytoca
From the text: as §1, §4

Salmonella isolates = assay: MIC by agar dilution; assay type: cell-based, Salmonella spp; conditions: Salmonella, read-out: MICs
From the text: as §1, §4

Escherichia coli = assay: Growth and colour on Salmonella detection medium; assay type: cell-based; conditions: added to the chromID Salmonella medium (0.002 g/L)
From the text: The present Example 3 aims to compare the detection specificity of a reaction medium according to the invention, intended to detect bacteria of the genus Salmonella, namely the medium “modified chromlD Salmonella” against a reference detection medium for the same bacteria, namely the medium “chromlD Salmonella”.
The respective compositions of the reaction medium according to the present invention and of the reference reaction medium are presented below, within Table 2.

[6] = read-out: Modal MIC (most frequent MIC)

C[C@H](NC(=O)[C@@H](N)CCl)P(=O)(O)O [β-Cl-Alafosfalin, β-chloro-L-alanyl-L-1-aminoethylphosphonic acid]
concentration by which growth of all the isolates was inhibited (E. coli (53); 53 isolates of E. coli): 0.5 µg/mL | activity relative to that of alafosfalin (E. coli (53); E. coli): at least twice | activity relative to that of fosfomycin (E. coli (53); E. coli): at least eight | MIC Range (E. coli (53); E. coli (53)): ≤0.031-0.5 ^ μg/mL | MIC50 (E. coli (53); Escherichia coli): 0.063 µg/mL (≈ 0.273 µM) | MIC90 (E. coli (53); Escherichia coli): 0.125 µg/mL (≈ 0.542 µM) | MIC (E. coli (53); Escherichia coli, read-out: Modal MIC (most frequent MIC)): 0.063 µg/mL (≈ 0.273 µM) | MIC50 (K. pneumoniae (87)): 1 µg/mL (≈ 4.34 µM) | MIC90 (K. pneumoniae (87)): 8 µg/mL (≈ 34.7 µM) | MIC (K. pneumoniae (87); [6]): 1 µg/mL (≈ 4.34 µM) | percent of isolates inhibited at 8 µg/mL (K. pneumoniae (87); read-out: isolates inhibited): 93% | MIC Range (E. cloacae (27); E. cloacae (27)): 0.063 to 1 µg/mL | concentration by which all the isolates were inhibited (E. cloacae (27); E. cloacae isolates (n=27)): 1 µg/mL | MIC50 (E. cloacae (27); Enterobacter cloacae): 0.5 µg/mL (≈ 2.17 µM) | MIC90 (E. cloacae (27); Enterobacter cloacae): 0.5 µg/mL (≈ 2.17 µM) | MIC (E. cloacae (27); Enterobacter cloacae, read-out: Modal MIC (most frequent MIC)): 0.5 µg/mL (≈ 2.17 µM) | MIC50 (AmpC (22)): 2 µg/mL (≈ 8.67 µM) | MIC90 (AmpC (22)): > 8 µg/mL | MIC (AmpC (22); [6]): > 8 µg/mL | MIC Range (All S. aureus (50); All S. aureus (50)): 0.125 to 4 µg/mL | MIC50 (All S. aureus (50); Staphylococcus aureus): 1 µg/mL (≈ 4.34 µM) | MIC90 (All S. aureus (50); Staphylococcus aureus): 2 µg/mL (≈ 8.67 µM) | MIC (All S. aureus (50); Staphylococcus aureus, read-out: Modal MIC (most frequent MIC)): 2 µg/mL (≈ 8.67 µM) | MIC50 (All Enterococci (50)): 8 µg/mL (≈ 34.7 µM) | MIC90 (All Enterococci (50)): 16 µg/mL (≈ 69.4 µM) | MIC (All Enterococci (50); [6]): 8 µg/mL (≈ 34.7 µM) | MIC50 [1]: 8 µg/mL (≈ 34.7 µM) | MIC90 [1]: 16 µg/mL (≈ 69.4 µM) | MIC [1, 6]: 4 µg/mL (≈ 17.3 µM) | MIC Range ([2]; MRSA (37)): 0.125 to 2 µg/mL | concentration by which all the isolates were inhibited ([2]; MRSA isolates): 2.0 µg/mL | MIC50 ([2]; Staphylococcus aureus, MRSA): 2 µg/mL (≈ 8.67 µM) | MIC90 ([2]; Staphylococcus aureus, MRSA): 2 µg/mL (≈ 8.67 µM) | MIC ([2]; Staphylococcus aureus, MRSA, read-out: Modal MIC (most frequent MIC)): 2 µg/mL (≈ 8.67 µM) | MIC Range ([3]; MSSA (13)): 0.5 to 4 µg/mL | MIC50 ([3]; Staphylococcus aureus, MSSA): 1 µg/mL (≈ 4.34 µM) | MIC90 ([3]; Staphylococcus aureus, MSSA): 2 µg/mL (≈ 8.67 µM) | MIC ([3]; Staphylococcus aureus, MSSA, read-out: Modal MIC (most frequent MIC)): 1 µg/mL (≈ 4.34 µM) | MIC50 (E. faecalis (11)): 8 µg/mL (≈ 34.7 µM) | MIC90 (E. faecalis (11)): 16 µg/mL (≈ 69.4 µM) | MIC (E. faecalis (11); [6]): 8 µg/mL (≈ 34.7 µM) | MIC Range (E. faecium (34); E. faecium (34)): 2 to 32 µg/mL | MIC50 (E. faecium (34); Enterococcus faecium): 4 µg/mL (≈ 17.3 µM) | MIC90 (E. faecium (34); Enterococcus faecium): 8 µg/mL (≈ 34.7 µM) | MIC (E. faecium (34); Enterococcus faecium, read-out: Modal MIC (most frequent MIC)): 4 µg/mL (≈ 17.3 µM) | concentration to which all the isolates were sensitive (Citrobacter (n=9)): ≤ 2 µg/mL | MIC50 (Enterobacteriaceae (197)): 0.5 µg/mL (≈ 2.17 µM) | MIC90 (Enterobacteriaceae (197)): 8 µg/mL (≈ 34.7 µM) | MIC (Enterobacteriaceae (197); [6]): 1 µg/mL (≈ 4.34 µM) | MIC50 [4]: 0.5 µg/mL (≈ 2.17 µM) | MIC90 [4]: > 8 µg/mL | MIC [4, 6]: 0.063 µg/mL (≈ 0.273 µM) | MIC50 [5]: 0.5 µg/mL (≈ 2.17 µM) | MIC90 [5]: 2 µg/mL (≈ 8.67 µM) | MIC [5, 6]: 1 µg/mL (≈ 4.34 µM) | concentration to which all the isolates were sensitive (E. aerogenes (n=1)): ≤ 2 µg/mL | concentration to which all the isolates were sensitive (Kluyvera sp. (n=1)): ≤ 2 µg/mL | concentration to which all the isolates were sensitive (S. marcescens (n=1)): ≤ 2 µg/mL | concentration by which all isolates were inhibited (K. oxytoca): ≤ 2 µg/mL | MIC (Salmonella isolates): 2 to 4 µg/mL (≈ 8.67 to 17.3 µM) | effect on the osidase activities of the strains of Escherichia coli (Escherichia coli): selectively inhibit
